Experimental data: ChEMBL document CHEMBL1201862, “PubChem BioAssay data set” (2004)
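These data come from cells grown in 96-well plates and exposed to compound for 48 hours at five concentrations. The concentration for 50% growth inhibition is given as GI50.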 The source made the active and inactive calls. Rule as the data show it: active = GI50 up to about 1.1 µM and inactive = higher.

Tests used:
Test in all cases: NCI-60 cell line screen, 48 h
[1] = tested on: BT-549
[2] = tested on: CCRF-CEM
[3] = tested on: HCT-116
[4] = tested on: HT-29
[5] = tested on: Hs-578T
[6] = tested on: KM12
[7] = tested on: MDA-MB-231
[8] = tested on: NCI-H23
[9] = tested on: NCI-H460
[10] = tested on: OVCAR-5
[11] = tested on: OVCAR-8
[12] = tested on: SF-539
[13] = tested on: SK-MEL-28
[14] = tested on: SK-MEL-5
[15] = tested on: SNB-75
[16] = tested on: SR
[17] = tested on: TK-10
[18] = tested on: UACC-62
[19] = tested on: UO-31
[20] = tested on: OVCAR-4

Measured: GI50

NNc1nncc2[nH]nnc12
inactive: [1] > 100 µM | [2] > 100 µM | [3] > 100 µM | [4] > 100 µM | [5] > 100 µM | [6] > 100 µM | [7] > 100 µM | [8] > 100 µM | [9] > 100 µM | [10] > 100 µM | [11] > 100 µM | [12] > 100 µM | [13] > 100 µM | [14] > 10 µM | [15] 5.74 µM | [16] 41.5 µM | [17] > 100 µM | [18] > 100 µM | [19] > 100 µM

C=CCOc1ccc2c(C)cc(=O)oc2c1C
inactive: [1] 32 µM | [2] 45.4 µM | [3] 40.5 µM | [4] 59.2 µM | [5] 26.9 µM | [6] 59.7 µM | [7] 32.2 µM | [8] > 100 µM | [9] 53.8 µM | [20] 96.4 µM | [10] > 100 µM | [11] 56.8 µM | [12] 41.2 µM | [13] > 100 µM | [14] 32.4 µM | [15] 52.6 µM | [16] 37.8 µM | [18] 82.6 µM | [19] 29.5 µM

CN(C)C(=S)SCC(=O)Nc1ccccc1
inactive: [1] > 100 µM | [2] > 100 µM | [3] > 100 µM | [4] > 100 µM | [5] > 100 µM | [6] > 100 µM | [7] > 100 µM | [8] > 100 µM | [9] > 100 µM | [20] > 100 µM | [10] > 100 µM | [11] > 100 µM | [13] 80.4 µM | [14] > 100 µM | [15] > 100 µM | [16] > 100 µM | [18] > 100 µM | [19] > 100 µM

C=C(C(=O)OCC)C(=O)OCC
inactive: [1] > 100 µM | [2] > 100 µM | [3] > 100 µM | [4] > 100 µM | [5] > 100 µM | [6] > 100 µM | [7] > 100 µM | [8] > 100 µM | [9] > 100 µM | [10] > 100 µM | [11] > 100 µM | [12] > 100 µM | [13] > 100 µM | [14] > 100 µM | [15] > 100 µM | [16] 20.7 µM | [17] > 100 µM | [18] > 100 µM | [19] > 100 µM

CC(C)c1ccc(/C=C2\N=C(c3ccc([N+](=O)[O-])cc3)OC2=O)cc1
inactive: [1] > 100 µM | [2] 55.7 µM | [3] > 100 µM | [4] > 100 µM | [5] > 100 µM | [6] > 100 µM | [7] > 100 µM | [8] > 100 µM | [9] > 100 µM | [20] > 100 µM | [10] > 100 µM | [11] > 100 µM | [12] > 100 µM | [13] > 100 µM | [14] > 100 µM | [15] > 100 µM | [16] > 100 µM | [17] > 100 µM | [18] > 100 µM

COc1cc(C(=O)/C=C/c2ccc(OCCSCCCCCCCCCCSCCOc3ccc(/C=C/C(=O)c4cc(OC)c(OC)c(OC)c4)cc3)cc2)cc(OC)c1OC
inactive: [1] > 100 µM | [2] > 100 µM | [3] > 100 µM | [4] > 100 µM | [5] > 100 µM | [6] > 100 µM | [7] > 100 µM | [8] > 100 µM | [10] > 100 µM | [11] > 100 µM | [12] > 100 µM | [13] > 100 µM | [14] > 100 µM | [15] > 100 µM | [16] > 100 µM | [17] > 100 µM | [18] > 100 µM | [19] > 100 µM

COc1cc(OC)c2c(c1-c1ccc(C)cc1)CC(C)N(Cc1ccccc1)[C@H]2C (some centres undefined)
inactive: [1] 28.2 µM | [2] 7.76 µM | [3] 20.3 µM | [4] 18.5 µM | [5] 12.7 µM | [6] 28.2 µM | [7] 51.3 µM | [8] 35 µM | [9] 37.7 µM | [11] 39.4 µM | [12] 32.1 µM | [13] 38.2 µM | [14] 19.4 µM | [15] 6.9 µM | [16] 30.3 µM | [17] 38.3 µM | [18] 39.1 µM | [19] 47.9 µM

CCN(CC)c1ccc2cc(C(N)=S)c(=N)oc2c1
inactive: [1] 37.9 µM | [2] > 100 µM | [3] > 100 µM | [4] > 100 µM | [5] > 100 µM | [6] > 100 µM | [7] > 100 µM | [9] > 100 µM | [20] > 100 µM | [10] > 100 µM | [11] > 100 µM | [12] > 100 µM | [13] > 100 µM | [14] > 100 µM | [15] > 100 µM | [16] > 100 µM | [17] > 100 µM | [18] > 100 µM | [19] > 100 µM

c1ccc2c(c1)sc1c3cnccc3ccc21
inactive: [1] > 100 µM | [3] > 100 µM | [4] 99.8 µM | [5] 29 µM | [6] 46.6 µM | [7] > 100 µM | [8] > 100 µM | [9] 24.9 µM | [20] > 100 µM | [10] > 100 µM | [12] 82.2 µM | [13] > 100 µM | [14] > 100 µM | [15] > 100 µM | [16] 11.6 µM | [17] 51.2 µM | [18] 80.4 µM | [19] > 100 µM

C=C1C(=O)[C@]23[C@H](O)[C@H]1CC[C@H]2[C@@]12CO[C@@]3(O)C[C@@H]1C(C)(C)CC[C@@H]2O [MEGATHYRIN A]
inactive: [1] 4.37 µM | [2] 7.59 µM | [3] 5.21 µM | [4] 6.21 µM | [5] 7.29 µM | [6] 6.22 µM | [7] 5.66 µM | [8] 7.4 µM | [20] > 25 µM | [10] > 25 µM | [11] 8.57 µM | [12] 6.79 µM | [13] 7.14 µM | [14] 13 µM | [15] 4.91 µM | [16] 7.55 µM | [17] 9.75 µM | [19] 13.8 µM

CC(=O)/C=N/CC(=O)O
inactive: [1] > 100 µM | [2] > 100 µM | [3] > 100 µM | [4] > 100 µM | [5] > 100 µM | [6] > 100 µM | [7] > 100 µM | [8] > 100 µM | [9] > 100 µM | [20] > 100 µM | [10] > 100 µM | [11] > 100 µM | [12] > 100 µM | [13] > 100 µM | [14] > 100 µM | [15] > 100 µM | [16] > 100 µM | [17] > 100 µM | [18] > 100 µM
